In patent US8519134B2, “Aryl-pyridine derivatives as aldosterone synthase inhibitors” (Novartis AG, priority 2009, dated 2013):
Structures can show the parent of a compound that is named as a salt.

Legend:
CYP11B2 (aldosterone) = target: T1, CYP11B2 (aldosterone) (Homo sapiens, UniProt P19099); assay: Inhibition of aldosterone production in NCI-H295R cells (Ang II stimulated, SPA); type: cell-based; conditions: inhibitory activity on aldosterone production, read-out: Aldosterone (cell)
T1 construct: host or cells: NCI-H295R (human adrenocortical carcinoma)
T1 sequence (P19099 25-503): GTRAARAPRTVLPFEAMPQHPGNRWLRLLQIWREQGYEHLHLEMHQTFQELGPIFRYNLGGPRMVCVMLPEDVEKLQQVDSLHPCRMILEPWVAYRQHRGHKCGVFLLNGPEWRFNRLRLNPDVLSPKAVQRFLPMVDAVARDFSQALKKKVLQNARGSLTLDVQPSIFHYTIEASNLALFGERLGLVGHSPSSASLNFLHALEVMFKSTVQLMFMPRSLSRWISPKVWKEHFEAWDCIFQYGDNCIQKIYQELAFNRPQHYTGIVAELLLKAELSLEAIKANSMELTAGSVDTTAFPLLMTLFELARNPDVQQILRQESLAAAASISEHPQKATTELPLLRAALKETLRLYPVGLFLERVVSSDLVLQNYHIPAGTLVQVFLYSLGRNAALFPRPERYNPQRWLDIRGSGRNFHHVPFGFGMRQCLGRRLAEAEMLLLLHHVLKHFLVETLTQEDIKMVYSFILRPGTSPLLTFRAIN
Description: In particular, the aldosterone synthase inhibitory activities in vitro can be determined by the following assay.
Human adrenocortical carcinoma NCI-H295R cell line was obtained from American Type Culture Collection (Manassas, Va.). Insulin/transferrin/selenium (ITS)-A supplement (100×), DMEM/F-12, antibiotic/antimycotic (100×), and fetal bovine serum (FBS) were purchased from Invitrogen (Carlsbad, Calif.). Anti-mouse PVT scintillation proximity assay (SPA) beads and NBS 96-well plates were obtained from GE Health Sciences (Piscataway, N.J.) and Corning (Acton, Mass.), respectively. Solid black 96-well flat bottom plates were purchased from Costar (Corning, N.Y.). Aldosterone and angiotensin (Ang II) were purchased from Sigma (St. Louis, Mo.). D-[1,2,6,7-^3H(N)]aldosterone was acquired from PerkinElmer (Boston, Mass.). Nu-serum was a product of BD Biosciences (Franklin Lakes, N.J.).
For in vitro measurement of aldosterone activity, human adrenocortical carcinoma NCI-H295R cells are seeded in NBS 96-well plates at a density of 25,000 cells/well in 100 μl of a growth medium containing DMEM/F12 supplemented with 10% FCS, 2.5% Nu-serum, 1 μg ITS/ml, and 1× antibiotic/antimycotic. The medium is changed after culturing for 3 days at 37° C. under an atmosphere of 5% CO2/95% air. On the following day, cells are rinsed with 100 μl of phosphate-buffered saline (PBS) and incubated with 100 μl of treatment medium containing 1 μM Ang II and a compound at different concentrations in quadruplicate wells at 37° C. for 24 hr. At the end of incubation, 50 μl of medium is withdrawn from each well for measurement of aldosterone production by an SPA using mouse anti-aldosterone monoclonal antibodies.
Measurement of aldosterone activity can also be performed using a 96-well plate format. Each test sample is incubated with 0.02 μCi of D-[1,2,6,7-^3H(N)]aldosterone and 0.3 μg of anti-aldosterone antibody in PBS containing 0.1% Triton X-100, 0.1% bovine serum albumin, and 12% glycerol in a total volume of 200 μl at room temperature for 1 hr. Anti-mouse PVT SPA beads (50 μl) are then added to each well and incubated overnight at room temperature prior to counting in a Microbeta plate counter. The amount of aldosterone in each sample is calculated by comparing with a standard curve generated using known quantities of the hormone.
The inhibition activity of aldosterone production can also be expressed in percentage inhibition (% inhibition) at a given concentration (e.g. % inhibition at 1 μM), which is the aldosterone level when the cell is treated with the given concentration of a compound of this invention (e.g. concentration of 1 μM) versus the aldosterone excretion when cell is free of the compound of the invention: % inhibition aldosterone production=[(Y−X)/Y]×100 wherein X is the level of aldosterone when the cell is treated with a compound according to anyone of Formulae I to V, or a pharmaceutically acceptable salt thereof; and Y is the level of aldosterone when the cell is free of compound according to anyone of Formulae I to V.

CYP11B1(cortisol) = target: T2, CYP11B1(cortisol) (Homo sapiens, UniProt P15538); assay: Inhibition of cortisol production in NCI-H295R cells; type: cell-based; conditions: inhibitory activity on cortisol production, read-out: Cortisol (cell)
T2 construct: Thus, the NCI-H295R cells have CYP11 B1 (steroid 11 β-hydroxylase); host or cells: NCI-H295R (human adrenocortical carcinoma)
T2 sequence (P15538 25-503): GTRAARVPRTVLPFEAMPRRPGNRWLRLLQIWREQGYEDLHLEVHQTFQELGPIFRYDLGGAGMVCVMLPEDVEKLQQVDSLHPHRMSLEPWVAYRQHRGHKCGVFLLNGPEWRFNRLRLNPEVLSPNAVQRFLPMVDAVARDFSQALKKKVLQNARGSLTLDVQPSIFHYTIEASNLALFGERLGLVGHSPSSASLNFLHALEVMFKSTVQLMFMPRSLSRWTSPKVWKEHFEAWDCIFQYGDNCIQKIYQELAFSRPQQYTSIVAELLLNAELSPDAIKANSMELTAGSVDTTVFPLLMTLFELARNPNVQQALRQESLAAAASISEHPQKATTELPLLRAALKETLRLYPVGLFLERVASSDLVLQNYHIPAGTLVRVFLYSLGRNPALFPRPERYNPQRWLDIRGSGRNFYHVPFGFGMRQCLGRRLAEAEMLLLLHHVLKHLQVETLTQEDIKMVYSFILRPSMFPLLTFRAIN
Description: The in vitro inhibitory activities for CYP11B1 can be determined by the following assay.
The cell line NCI-H295R was originally isolated from an adrenocortical carcinoma and has been characterized in the literature through the stimulable secretion of steroid hormones and the presence of the enymes essential for steroidogenesis. Thus, the NCI-H295R cells have CYP11 B1 (steroid 11 β-hydroxylase). The cells show the physiological property of zonally undifferentiated human foetal adrenocortical cells which, however, have the capacity to produce the steroid hormones which are formed in the three, phenotypically distinguishable zones in the adult adrenal cortex.
The NCI-H295R cells (American Type Culture Collection, ATCC, Rockville, Md., USA) are grown in Dulbeoco's Modified Eagle'Ham F-12 Medium (DME/F12), which has been supplemented with Ulroser SF Serum (Soprachem, Cergy-Saint-Christophe, France), insulin, transferrin, selenite (I-T-S, Becton Dickinson Biosiences, Franklin lakes, NJ, USA) and antibiotics in 75 cm^2 cell culture vessels at 37° C. and in a 95% air-5% carbon dioxide atmosphere. The cells are subsequently transferred for colony formation into a 24-well incubation vessel. They are cultivated there in DME/F12 medium, which is now supplemented with 0.1% bovine serum instead of Ultroser SF for 24 hours. The experiment is initiated by cultivating the cells in DME/F12 medium which is supplemented with 0.1% bovine serum albumin and test compound, in the presence or absence of cell stimulants, for 72 hours. The test substance is added in a concentration range from 0.2 nanomolar to […]. Cell stimulants which can be used are angiotensin 11 ([…] or 100 nanomolar), potassium ions (16 millimolar), forskolin (10 micromolar) or a combination of two stimulants.
The excretion of aldosterone, cortisol, corticosterone and estradiol/estrone into the culture medium can be detected and quantified by commercially available, specific monoclonal antibodies in radioimmunoassays in accordance with the manufacturers instructions.
Inhibition of the release of certain steroids can be used as a measure of the respective enzyme inhibition by the added test compounds. The dose-dependent inhibition of enzymic activity by a compound is calculated by means of an inhibition plot which is characterized by an IC50.
The IC50 values for active test compounds are ascertained by a simple linear regression analysis in order to construct inhibition plots without data weighting. The inhibition plot is calculated by fitting a 4-parameter logistic function to the raw data points using the least squares method. The equation of the 4-parameter logistic function is calculated as follows: Y=(d−a)/((1+(x/c)b))+a, where: a=minimum data level, b=gradient, I […], d=maximum data level, x=inhibitor concentration.
The inhibition activity of CYP11B1 production can also be expressed in percentage inhibition (% inhibition) at a given concentration (e.g. % inhibition at 1 μM), which is the cortisol level when cell is treated with the given concentration of a compound of the invention (e.g. concentration of 1 μM) versus the cortisol excretion when cell is free of the compound of the invention. % inhibition cortisol production=[(Y′−X′)/Y′]×100 wherein X′ is the level of cortisol when the cell is treated with a compound according to anyone of Formulae I to V, or a pharmaceutically acceptable salt thereof; and Y′ is the level of cortisol when the cell is free of compound according to anyone of Formulae I to V.

Row | SMILES | IC50 (CYP11B2 (aldosterone)) [nM] | IC50 (CYP11B1(cortisol)) [nM]
1 | CC(O)c1c(F)cncc1-c1ccc2cc(C#N)ccc2c1 (single isomer, unassigned) [5 (enantiomer-1), 6-(5-fluoro-4-(1-hydroxyethyl)pyridin-3-yl)-2-naphthonitrile] | 41.5 | 367
2 | CC(O)c1ccncc1-c1ccc(Cl)c(Cl)c1 (stereo not shown) [Example 46, 1-[3-(3,4-Dichloro-phenyl)-pyridin-4-yl]ethanol] | 76.5 | 672
3 | CC(O)c1c(F)cncc1-c1ccc(C#N)c(Cl)c1 (single isomer, unassigned) [Example 16 (enantiomer-2)] | 106 | 9420
4 | N#Cc1ccc(-c2cnccc2C2CCO2)cc1Cl (single isomer, unassigned) [Example 28 (enantiomer-1), 2-chloro-4-(4-(oxetan-2-yl)pyridin-3-yl)benzonitrile] | 23.5 | 783
5 | COc1cc(-c2cnccc2C(C)O)ccc1C#N (single isomer, unassigned) [Example 14 (enantiomer-1)] | 132 | 3390
6 | Cn1c(-c2cnccc2CO)nc2ccc(Cl)cc21 [Example 37, [3-(6-Chloro-1-methyl-1H-benzoimidazol-2-yl)-pyridin-4-yl]-methanol] | 120 | 12600
7 | CC(C)(O)c1c(F)cncc1-c1ccc(C#N)c(Cl)c1 [Example 32, 2-Chloro-4-[5-fluoro-4-(1-hydroxy-1-methyl-ethyl)-pyridin-3-yl]-benzonitrile] | 154 | 15000
8 | CC(O)c1c(F)cncc1-c1cc2cc(Cl)c(F)cc2o1 (single isomer, unassigned) [Example 13d (enantiomer-2), 1-(3-(5-chloro-6-fluorobenzofuran-2-yl)-5-fluoropyridin-4-yl)ethanol] | 2.5 | 1070
9 | CC(C)OCC(O)c1c(F)cncc1-c1ccc(C#N)c(Cl)c1 (stereo not shown) [Example 30, 2-Chloro-4-[5-fluoro-4-(1-hydroxy-2-isopropoxy-ethyl)-pyridin-3-yl]-benzonitrile hydrochloride] | 144 | 4240
10 | CC1OC(=O)c2cncc(-c3ccc(C#N)c(Cl)c3)c21 (stereo not shown) [Example 24, 2-chloro-4-(1-methyl-3-oxo-1,3-dihydrofuro[3,4-c]pyridin-7-yl)benzonitrile] | 261 | 
